Where two headings read alike, the source gives them in different places.
Legend:
KV7.1/mink = molecular target: T1, KV7.1/mink (Homo sapiens, UniProt P51787); experiment: Whole-cell patch clamp on KV7.1/mink (IKs); type: cell-based
T1 construct: expressed in transfected cells
Experimental: (§1) and CiPA Initiative Studies
(§2) =============================================================
(§3) In vitro studies on other ion channels […]
(§4) through NaV1.5, KV4.3, KV7.1/mink, Kir2.1, KV1.5, CaV1.2 and CaV3.2 channels.
(§5) 35-mm dish culture in the conditions mentioned in standard cell culture conditions. Experiments were performed with a cell density enabling isolated cells for patch clamping. Cells were continuously superfused with extracellular medium (1-2 mL∙minute-1) at room temperature.
(§6) D-glucose 10, HEPES 10 and the final pH adjusted to 7.4±0.02 with NaOH for recording NaV1.5, KV4.3, KV7.1/mink, Kir2.1, KV1.5 and CaV3.2 currents. It was (in mM): NaCl 110, KCl 4, BaCl2 20, MgCl2 1, D-glucose 20, HEPES 10 and the final pH adjusted to 7.4 ± 0.02 with NaOH for recording the CaV1.2 current. Compositions of the intracellular solution to fill the pipette are […]
(§7) Composition of intracellular solutions used to fill pipette to record currents through NaV1.5, KV4.3, KV7.1/mink, Kir2.1, KV1.5, CaV1.2 and CaV3.2 channels
(§8) Solution to fill the pipette (mM)
(§9) Creatine-phospho kinase 50 U∙mL-1
(§10) After formation of a Gigaohm seal between the patch electrodes and individual cells (pipette resistance range: 2.0 MΩ - 7.0 MΩ; seal resistance range: > 1 GΩ) the cell membrane across the pipette tip was ruptured to assure electrical access to the cell interior (whole-cell patch-configuration). In case the quality of the seal was poor, the process of seal formation was repeated with a different cell and a new pipette. As soon as a stable seal was established outward tail currents were measured upon pulses described in the Table S2. If current density was judged to be too low for measurement, another cell was recorded. […]
(§11) voltage stimulation protocol indicated in the next table continuously run until the steady-state level of block was reached.
(§12) Stimulation conditions used to record currents through NaV1.5, KV4.3, KV7.1/mink, Kir2.1, KV1.5, CaV1.2 and CaV3.2 channels
(§13) Ion channel Holding potential Pulse / duration Frequency Reference compound […]
(§14) (resting / fast / slow sweeps at one (10 mM) inactivated concentration)

in vivo [1] = experiment: in vivo; parameters: species or system rabbit; details: female, rabbit, in vivo, iv, read-out: free drug concentration
Experimental: All the other experimental groups were 100% female.
The anaesthetized methoxamine‐sensitized rabbit model of TdP is frequently used to study torsadogenic potential of drugs (Carlsson et al., 1990). Briefly, female animals were pre‐sensitized with i.v. infusion of methoxamine, an α1‐adrenoceptor agonist, delivered at 15 μg·kg^−1·min^−1 (6 mL·h^−1) over 70 min.

[2] = tested on: human stem cell‐derived cardiomyocytes; type: cell-based
Text: . Human cardiomyocytes (Cor.4U®, Axiogenesis AG, Cologne, Germany) were derived from human iPSC. Preparations were stimulated at 0.5 Hz with 4 ms rectangular pulses from 1 to 1.5 times depolarization threshold to −60 mV. We studied RMP, APA, action potential durations measured at 20 and 90% repolarization (APD20 and APD90) and APD90‐APD20. […]

CaV3.2 = molecular target: T2, CaV3.2 (Homo sapiens, UniProt O95180); experiment: Whole-cell patch clamp on CaV3.2 (ICaT); type: cell-based
T2 construct: expressed in transfected cells
Experimental: as §1, §2, §3, §4, §5, §6, §7, §8, §9, §10, §11, §12, §13, §14

[3] = in house data
[4] = tested on: conscious telemetered dogs; experiment: in vivo; details: dog
Experimental: (§15) Telemetry implantation was performed as previously described (Lacroix et al., 2003). Approximately 2 weeks later, blood pressure, heart rate and ECG intervals were recorded per blocks of 30 s at the time points of interest for 30 min before and for 24 h after administration of test compound. ECG traces were inspected visually for any rhythm or conduction abnormalities (such as arrhythmia, tachyarrhythmia, atrioventricular conduction blocks), and values of PR, QRS and QT intervals were obtained by a validated manual reading procedure (mean calculated from three non‐consecutive sinus beats). The QT interval measured was corrected for heart rate using the Fridericia formula (QTcF) and the van de Waters formula. […] Five to six dogs (two or three males and three females) were studied with at least 48 h between each test session.
(§16) At the highest dose of 15 mg·kg^−1 p.o., this route provided an exposure (59 ± 25 ng·mL^−1), without any adverse CNS events (i.e. pre‐convulsive signs) in this species, close to the exposure recorded in humans at therapeutic doses. […] Pitolisant serum levels were assessed by LC‐mass spectrometry using a validated analytical method.

in vivo [5] = details: both sexes, Beagle, dog, in vivo; for concentration at 1 h: po, 1 h after administration, read-out: total drug exposure (serum level)
Experimental: as §15, §16

Kv11.1 (hERG) channel = Kv11.1 (hERG) channel (Homo sapiens, UniProt Q12809); experiment: cell-based
Experimental: A whole‐cell patch clamp study was performed on isolated cells at room temperature. Cells were initially clamped at −80 mV, and biphasic pulses (4.8 s at +20 mV and then for 5 s at −50 mV) were applied at a 0.067 Hz frequency. […] Peak tail current amplitudes for each concentration were measured and averaged for four consecutive stimuli. Vehicle control tested in parallel evaluated the spontaneous run‐down of hERG current over time in testing conditions and the corresponding correction was applied.

[6] = human, 40 mg daily dosing; ref Shah et al., 2016; cited from earlier work

Chain of Kv11.1 (hERG) channel (Q12809 whole entry): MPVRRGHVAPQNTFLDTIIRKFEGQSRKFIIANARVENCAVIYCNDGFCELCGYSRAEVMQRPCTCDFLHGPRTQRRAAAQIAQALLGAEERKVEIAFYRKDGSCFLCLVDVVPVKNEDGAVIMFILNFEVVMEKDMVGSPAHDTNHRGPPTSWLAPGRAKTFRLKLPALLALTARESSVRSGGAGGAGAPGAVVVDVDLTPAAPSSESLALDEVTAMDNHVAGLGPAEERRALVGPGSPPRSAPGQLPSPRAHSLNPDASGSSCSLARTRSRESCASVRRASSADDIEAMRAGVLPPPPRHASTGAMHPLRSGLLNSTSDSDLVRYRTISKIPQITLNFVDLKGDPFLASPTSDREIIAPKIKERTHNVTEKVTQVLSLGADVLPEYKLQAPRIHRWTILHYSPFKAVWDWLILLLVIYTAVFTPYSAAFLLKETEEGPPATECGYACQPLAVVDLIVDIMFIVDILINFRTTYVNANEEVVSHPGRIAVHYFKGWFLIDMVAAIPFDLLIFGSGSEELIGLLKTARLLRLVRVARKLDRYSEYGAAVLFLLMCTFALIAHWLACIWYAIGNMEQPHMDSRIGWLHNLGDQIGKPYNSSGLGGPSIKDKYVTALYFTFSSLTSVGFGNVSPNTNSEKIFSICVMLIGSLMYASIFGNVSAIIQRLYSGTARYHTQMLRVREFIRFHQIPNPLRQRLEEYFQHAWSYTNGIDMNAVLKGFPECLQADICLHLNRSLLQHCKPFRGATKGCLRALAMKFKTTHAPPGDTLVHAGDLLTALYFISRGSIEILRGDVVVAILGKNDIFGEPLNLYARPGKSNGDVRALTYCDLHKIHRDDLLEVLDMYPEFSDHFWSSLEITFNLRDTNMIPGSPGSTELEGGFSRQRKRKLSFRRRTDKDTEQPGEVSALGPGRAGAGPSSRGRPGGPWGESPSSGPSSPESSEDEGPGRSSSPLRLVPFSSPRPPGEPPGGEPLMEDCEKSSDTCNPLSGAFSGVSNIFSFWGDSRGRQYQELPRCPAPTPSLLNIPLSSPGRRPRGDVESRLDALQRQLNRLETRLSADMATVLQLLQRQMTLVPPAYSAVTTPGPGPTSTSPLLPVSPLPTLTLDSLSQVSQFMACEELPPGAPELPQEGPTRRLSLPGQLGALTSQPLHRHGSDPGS
T2 sequence (O95180 whole entry): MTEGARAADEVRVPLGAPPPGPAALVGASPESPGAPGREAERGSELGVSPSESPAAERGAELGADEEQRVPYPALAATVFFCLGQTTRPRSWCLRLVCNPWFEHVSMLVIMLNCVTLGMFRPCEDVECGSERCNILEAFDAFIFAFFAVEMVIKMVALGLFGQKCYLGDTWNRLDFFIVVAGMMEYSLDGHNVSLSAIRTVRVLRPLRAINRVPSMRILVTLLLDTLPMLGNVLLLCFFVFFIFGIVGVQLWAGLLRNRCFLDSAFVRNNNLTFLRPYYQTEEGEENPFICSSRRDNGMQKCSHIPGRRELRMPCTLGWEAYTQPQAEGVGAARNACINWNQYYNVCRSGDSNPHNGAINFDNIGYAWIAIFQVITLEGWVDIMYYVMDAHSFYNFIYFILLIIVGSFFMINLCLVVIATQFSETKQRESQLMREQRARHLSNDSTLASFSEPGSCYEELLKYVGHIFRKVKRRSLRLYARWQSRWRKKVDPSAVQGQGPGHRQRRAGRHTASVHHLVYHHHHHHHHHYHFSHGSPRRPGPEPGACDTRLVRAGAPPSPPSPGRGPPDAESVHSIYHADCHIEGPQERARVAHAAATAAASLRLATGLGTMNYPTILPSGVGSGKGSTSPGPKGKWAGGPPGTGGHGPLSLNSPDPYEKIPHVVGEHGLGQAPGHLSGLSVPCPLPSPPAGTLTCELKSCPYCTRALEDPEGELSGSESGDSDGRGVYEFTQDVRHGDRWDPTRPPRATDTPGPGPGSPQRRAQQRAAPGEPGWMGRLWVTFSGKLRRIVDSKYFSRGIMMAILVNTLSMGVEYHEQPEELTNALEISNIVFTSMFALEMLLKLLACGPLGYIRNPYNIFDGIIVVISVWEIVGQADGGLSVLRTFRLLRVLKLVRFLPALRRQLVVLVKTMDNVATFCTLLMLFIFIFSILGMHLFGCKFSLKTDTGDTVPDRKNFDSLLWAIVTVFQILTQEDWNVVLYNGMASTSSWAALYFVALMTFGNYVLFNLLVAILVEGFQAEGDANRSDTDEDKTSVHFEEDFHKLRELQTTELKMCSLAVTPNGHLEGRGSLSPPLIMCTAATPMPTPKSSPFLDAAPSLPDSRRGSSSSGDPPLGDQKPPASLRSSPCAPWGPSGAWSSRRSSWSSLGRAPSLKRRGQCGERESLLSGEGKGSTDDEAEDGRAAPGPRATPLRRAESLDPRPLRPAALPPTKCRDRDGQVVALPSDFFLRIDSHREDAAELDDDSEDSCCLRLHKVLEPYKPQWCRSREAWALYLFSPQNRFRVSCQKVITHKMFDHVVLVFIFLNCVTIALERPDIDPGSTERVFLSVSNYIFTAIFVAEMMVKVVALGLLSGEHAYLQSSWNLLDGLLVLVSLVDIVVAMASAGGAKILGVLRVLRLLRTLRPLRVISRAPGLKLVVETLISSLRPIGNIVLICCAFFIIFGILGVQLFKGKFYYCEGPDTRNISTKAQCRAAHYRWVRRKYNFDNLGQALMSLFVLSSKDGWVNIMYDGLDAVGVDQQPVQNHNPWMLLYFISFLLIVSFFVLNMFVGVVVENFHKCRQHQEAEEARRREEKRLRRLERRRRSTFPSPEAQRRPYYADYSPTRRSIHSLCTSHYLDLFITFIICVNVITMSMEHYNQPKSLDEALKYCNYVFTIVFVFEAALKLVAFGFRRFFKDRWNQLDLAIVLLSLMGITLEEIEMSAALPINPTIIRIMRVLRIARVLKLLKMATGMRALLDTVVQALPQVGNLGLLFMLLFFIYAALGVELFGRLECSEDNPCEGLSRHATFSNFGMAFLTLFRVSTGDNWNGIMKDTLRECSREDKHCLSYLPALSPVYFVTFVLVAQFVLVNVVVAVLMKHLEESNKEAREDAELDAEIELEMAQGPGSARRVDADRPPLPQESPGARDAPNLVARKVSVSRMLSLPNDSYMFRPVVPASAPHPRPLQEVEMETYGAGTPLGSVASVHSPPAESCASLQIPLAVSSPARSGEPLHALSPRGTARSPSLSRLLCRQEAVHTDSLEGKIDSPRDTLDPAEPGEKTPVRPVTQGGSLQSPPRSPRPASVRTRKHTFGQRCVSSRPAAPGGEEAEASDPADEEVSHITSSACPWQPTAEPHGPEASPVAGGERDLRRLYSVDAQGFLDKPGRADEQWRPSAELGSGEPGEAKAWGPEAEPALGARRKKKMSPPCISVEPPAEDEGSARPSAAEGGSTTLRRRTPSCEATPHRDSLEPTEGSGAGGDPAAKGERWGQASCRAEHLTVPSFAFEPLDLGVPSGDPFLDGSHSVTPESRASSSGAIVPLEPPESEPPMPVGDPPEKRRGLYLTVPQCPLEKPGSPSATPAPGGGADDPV

## Cl.Clc1ccc(CCCOCCCN2CCCCC2)cc1 [pitolisant, 1‐{3‐[3‐(4‐chlorophenyl)propoxy]propyl}piperidine, hydrochloride]
KV7.1/mink; KV7.1/mink IKs, Hill curve fit with Hill coefficient of one
  Fitted IC50: No effect
KV7.1/mink; KV7.1/mink, IKs
  IC50: > 10 µM
In vivo [1]; after 50 μg·kg^−1·min^−1 1 h i.v. infusion
  concentration at 1 h: ~140 nM
In vivo [1]; after 150 μg·kg^−1·min^−1 1 h i.v. infusion
  concentration at 1 h: ~450 nM
[2]
  effect on dofetilide-induced increase in APD90: fully reversed
[2]; 3 μM
  increase in APD90–20 vs. baseline: 192 ms
  maximal increase in APD90: 97 ms
[2]; 10 μM
  increase in APD90–20 vs. baseline: 176 ms
[2]; 1, 3 or 10 μM
  effect on APD20: concentration‐dependent effect of decreasing APD20
  effect on RMP and APA: little effect
CaV3.2; CaV3.2 ICaT, Hill curve fit with Hill coefficient of one, read-out: Fitted IC50
  IC50: 25.7 µM
CaV3.2; Pitolisant IC50, CaV3.2, ICaT
  IC50: ≥ 10 µM
[3]
  protein-binding: 96%
[4]; both, Beagle, in vivo, iv
  free drug concentration: ~ 0.14 μM
[4]; 4.5 mg·kg^−1 i.v., for up to 4 h after injection
  effect on mean arterial blood pressure and heart rate: increases in mean arterial blood pressure and heart rate
[4]; 4.5 mg·kg^−1 i.v., return to baseline 30 min after injection
  effect on QTcF interval: decrease in QTcF interval for 20 min
[4]; 15 mg·kg^−1 p.o., 1 h after administration
  total drug exposure (serum level): 59.2 ± 24.6 ng/mL
[4]; over the test period, 6/6 dogs
  arrhythmia or other morphological changes in the ECG: No arrhythmia or other morphological changes in the ECG
[4]; single doses 5, 10 and 15 mg·kg^−1 p.o. or 1.5 mg·kg^−1 i.v., compared to vehicle
  effect on heart rate, mean arterial blood pressure, QTc interval or any other ECG parameter: no effect
In vivo [5]; iv, 1.5 mg·kg^−1 i.v., 5 min, read-out: total drug concentration
  concentration at 5 min: 294 ± 40 ng/mL
In vivo [5]; iv, 1.5 mg·kg^−1 i.v., 30 min, read-out: total drug concentration
  concentration at 30 min: 231 ± 36 ng/mL
In vivo [5]; 5 mg·kg^−1 p.o.
  concentration at 1 h: 3.5 ± 1 ng/mL
In vivo [5]; 10 mg·kg^−1 p.o.
  concentration at 1 h: 15.8 ± 5.8 ng/mL
In vivo [5]; 15 mg·kg^−1 p.o.
  concentration at 1 h: 59 ± 25 ng/mL
Kv11.1 (hERG) channel
  IC50: 1.3 µM
Kv11.1 (hERG) channel; assuming 96% protein-binding and free concentration of […] at 40 mg maximal therapeutic dose
  safety margin (hERG IC50 versus free drug concentration): around 100
[6]
  highest clinically relevant exposure: 72 ng/mL

Reference: publication PMC5715595 (British Journal of Pharmacology, 2017)
